Reference: PubChem BioAssay (NCI)
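Exposure lasted 48 hours, with cells grown in 96-well plates and compounds tested at five concentrations. TGI is the concentration that stops growth completely.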

Assays:
Test in all cases: inhibition of tumour cell growth, NCI panel, 48 h
[1] = tested on: RXF 393 renal
[2] = tested on: UACC-62 melanoma
[3] = tested on: MDA-MB-231 breast
[4] = tested on: T-47D breast
[5] = tested on: A498 renal
[6] = tested on: SNB-75 CNS
[7] = tested on: HT29 colon
[8] = tested on: HCT-116 colon
[9] = tested on: MDA-N
[10] = tested on: TK-10 renal
[11] = tested on: SR leukemia
[12] = tested on: HCT-15 colon
[13] = tested on: ACHN renal
[14] = tested on: BT-549 breast
[15] = tested on: OVCAR-4 ovarian
[16] = tested on: SN12C renal
[17] = tested on: SK-MEL-2 melanoma
[18] = tested on: SNB-19 CNS
[19] = tested on: COLO 205 colon
[20] = tested on: OVCAR-8 ovarian
[21] = tested on: RPMI-8226 leukemia
[22] = tested on: HOP-62 NSCLC
[23] = tested on: 786-0 renal
[24] = tested on: IGROV1 ovarian
[25] = tested on: SW-620 colon
[26] = tested on: HOP-92 NSCLC
[27] = tested on: SK-MEL-5 melanoma
[28] = tested on: OVCAR-5 ovarian
[29] = tested on: U251 CNS
[30] = tested on: MOLT-4 leukemia
[31] = tested on: A549 NSCLC
[32] = tested on: HCC-2998 colon
[33] = tested on: HS 578T breast
[34] = tested on: MDA-MB-435
[35] = tested on: NCI/ADR-RES ovarian
[36] = tested on: LOX IMVI melanoma
[37] = tested on: NCI-H460 lung
[38] = tested on: KM12 colon
[39] = tested on: M14 melanoma
[40] = tested on: CAKI-1 renal
[41] = tested on: SK-MEL-28 melanoma
[42] = tested on: NCI-H226 lung
[43] = tested on: OVCAR-3 ovarian
[44] = tested on: PC-3 prostate
[45] = tested on: SF-539 CNS
[46] = tested on: SF-268 CNS
[47] = tested on: NCI-H522 lung
[48] = tested on: MCF7 breast
[49] = tested on: CCRF-CEM leukemia
[50] = tested on: SK-OV-3 ovarian
[51] = tested on: UO-31 renal
[52] = tested on: NCI-H23 lung
[53] = tested on: K-562 leukemia
[54] = tested on: UACC-257 melanoma
[55] = tested on: HL-60(TB) leukemia
[56] = tested on: SF-295 CNS
[57] = tested on: EKVX NSCLC
[58] = tested on: DU-145 prostate
[59] = tested on: MALME-3M melanoma

`COC1=CC(=O)C2=C(C1=O)[C@H]1CC[C@]3(C)[C@@H](O)CC[C@H]3[C@@H]1CC2` gave a TGI [1] of 46.5 µM, a TGI [2] of 31.2 µM and a TGI [3] of 5.84 µM. For the same compound, the TGI [4] was 38.4 µM, the TGI [5] was > 100 µM and the TGI [6] was 36.5 µM. It also gave a TGI [7] of 19 µM, a TGI [8] of 30.7 µM and a TGI [9] of 32.8 µM. The TGI [10] was 63.8 µM, the TGI [11] was 55.4 µM and the TGI [12] was 31.9 µM. The TGI [13] was 31.9 µM, the TGI [14] was 31.8 µM and the TGI [15] was 30.9 µM. The TGI [16] was 30.6 µM, the TGI [17] was 26.8 µM and the TGI [18] was 73.2 µM. The TGI [19] was 22.5 µM, the TGI [20] was 31.6 µM and the TGI [21] was 44.4 µM. It also gave a TGI [22] of 29.7 µM, a TGI [23] of 37.8 µM and a TGI [24] of 44.7 µM. The TGI [25] was > 100 µM, the TGI [26] was 37.5 µM and the TGI [27] was 28.8 µM. For the same compound, the TGI [28] was 33.6 µM, the TGI [29] was 31.3 µM and the TGI [30] was 20.8 µM. It also gave a TGI [31] of 34.7 µM, a TGI [32] of 42.8 µM and a TGI [33] of 42.7 µM. For the same compound, the TGI [34] was 33.3 µM, the TGI [35] was 84 µM and the TGI [36] was 35.8 µM. For the same compound, the TGI [37] was 35.8 µM, the TGI [38] was 32.3 µM and the TGI [39] was 31.3 µM. For the same compound, the TGI [40] was 57.4 µM, the TGI [41] was 38.3 µM and the TGI [42] was 31.5 µM. The TGI [43] was 32.3 µM, the TGI [44] was 30 µM and the TGI [45] was 30.6 µM. For the same compound, the TGI [46] was 31 µM, the TGI [47] was 31.8 µM and the TGI [48] was 30.7 µM. The TGI [49] was 86.2 µM, the TGI [50] was > 100 µM and the TGI [51] was 43.5 µM. It also gave a TGI [52] of 56.8 µM, a TGI [53] of 83.8 µM and a TGI [54] of 30 µM. For the same compound, the TGI [55] was 46.5 µM, the TGI [56] was 30.3 µM and the TGI [57] was 30.5 µM. The TGI [58] was 31 µM.

In the case of `OCC12C3C4C5C3C1C5C42` (stereo not given), the TGI [1] is reported as > 100 µM, the TGI [2] is reported as > 100 µM and the TGI [3] is reported as > 100 µM. For the same compound, the TGI [4] was > 100 µM, the TGI [5] was > 100 µM and the TGI [6] was > 100 µM. For the same compound, the TGI [7] was > 100 µM, the TGI [8] was > 100 µM and the TGI [9] was > 100 µM. The TGI [10] was > 100 µM, the TGI [11] was > 100 µM and the TGI [12] was > 100 µM. For the same compound, the TGI [13] was > 100 µM, the TGI [14] was > 100 µM and the TGI [15] was > 100 µM. The TGI [16] was > 100 µM, the TGI [17] was > 100 µM and the TGI [18] was > 100 µM. The TGI [19] was > 100 µM, the TGI [20] was > 100 µM and the TGI [22] was > 100 µM. The TGI [23] was > 100 µM, the TGI [24] was > 100 µM and the TGI [25] was > 100 µM. The TGI [26] was > 100 µM, the TGI [27] was > 100 µM and the TGI [28] was > 100 µM. For the same compound, the TGI [29] was > 100 µM, the TGI [30] was > 100 µM and the TGI [31] was > 100 µM. The TGI [33] was > 100 µM, the TGI [34] was > 100 µM and the TGI [59] was > 100 µM. For the same compound, the TGI [35] was > 100 µM, the TGI [36] was > 100 µM and the TGI [37] was > 100 µM. For the same compound, the TGI [39] was > 100 µM, the TGI [40] was > 100 µM and the TGI [41] was > 100 µM. The TGI [42] was > 100 µM, the TGI [43] was > 100 µM and the TGI [44] was > 100 µM. The TGI [45] was > 100 µM, the TGI [46] was > 100 µM and the TGI [47] was > 100 µM. For the same compound, the TGI [48] was > 100 µM, the TGI [49] was > 100 µM and the TGI [50] was > 100 µM. The TGI [51] was > 100 µM, the TGI [52] was > 100 µM and the TGI [53] was > 100 µM. The TGI [54] was > 100 µM, the TGI [55] was > 100 µM and the TGI [56] was > 100 µM. For the same compound, the TGI [57] was > 100 µM and the TGI [58] was > 100 µM.

For `COc1cc(/C=C/c2nc(NC(=S)Nc3ccccc3)nnc2C)cc(OC)c1OC`, the TGI [1] was 66.8 µM, the TGI [2] was 51.1 µM and the TGI [3] was > 100 µM. It also gave a TGI [4] of 90.1 µM, a TGI [5] of 82.4 µM and a TGI [7] of 48.8 µM. The TGI [8] was 86 µM, the TGI [9] was > 100 µM and the TGI [10] was > 100 µM. The TGI [11] was > 100 µM, the TGI [12] was 37.1 µM and the TGI [13] was 48.1 µM. For the same compound, the TGI [14] was 89 µM, the TGI [15] was 76.4 µM and the TGI [16] was > 100 µM. The TGI [17] was 38.1 µM, the TGI [18] was > 100 µM and the TGI [19] was 32.2 µM. For the same compound, the TGI [20] was > 100 µM, the TGI [21] was 67.8 µM and the TGI [22] was > 100 µM. The TGI [23] was > 100 µM, the TGI [24] was 93.7 µM and the TGI [25] was > 100 µM. The TGI [26] was > 100 µM, the TGI [27] was 29.1 µM and the TGI [28] was > 100 µM. For the same compound, the TGI [29] was > 100 µM, the TGI [30] was > 100 µM and the TGI [31] was > 100 µM. The TGI [32] was 26.4 µM, the TGI [33] was > 100 µM and the TGI [34] was > 100 µM. For the same compound, the TGI [59] was > 100 µM, the TGI [35] was > 100 µM and the TGI [36] was > 100 µM. For the same compound, the TGI [37] was 36.8 µM, the TGI [38] was 27.6 µM and the TGI [39] was > 100 µM. The TGI [40] was > 100 µM, the TGI [41] was > 100 µM and the TGI [42] was 81.4 µM. For the same compound, the TGI [44] was > 100 µM, the TGI [46] was > 100 µM and the TGI [47] was 28.4 µM. For the same compound, the TGI [48] was > 100 µM, the TGI [49] was 57.7 µM and the TGI [50] was > 100 µM. It also gave a TGI [51] of 67.7 µM, a TGI [52] of 66.9 µM and a TGI [53] of 78.2 µM. The TGI [54] was > 100 µM, the TGI [55] was 34.1 µM and the TGI [56] was > 100 µM. For the same compound, the TGI [57] was > 100 µM and the TGI [58] was > 100 µM.
